Results reported in ChEMBL document CHEMBL1201862, “PubChem BioAssay data set” (2004).
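96-well plates; 48 h exposure; 5 concentrations. Endpoints by linear interpolation between flanking doses. Not reached: highest tested concentration assigned. GI50 = concentration required for 50% inhibition of growth.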 Calls of active or inactive are those of the source. Rule as the data show it: active = GI50 up to about 1.1 µM and inactive = higher.

Key:
Assay in all cases: NCI-60 cell line screen, 48 h
UACC-257 = tested on: UACC-257
EKVX = tested on: EKVX
IGROV-1 = tested on: IGROV-1
LOX IMVI = tested on: LOX IMVI
HT-29 = tested on: HT-29
K562 = tested on: K562
HOP-62 = tested on: HOP-62
DLD-1 = tested on: DLD-1
SNB-75 = tested on: SNB-75
HL-60 = tested on: HL-60
SF-539 = tested on: SF-539
LXFL 529 = tested on: LXFL 529
XF498 = tested on: XF498
HOP-92 = tested on: HOP-92
UO-31 = tested on: UO-31
OVCAR-4 = tested on: OVCAR-4
M19-MEL = tested on: M19-MEL
CAKI-1 = tested on: CAKI-1
OVCAR-5 = tested on: OVCAR-5
MOLT-4 = tested on: MOLT-4
SNB-19 = tested on: SNB-19
Malme-3M = tested on: Malme-3M
COLO 205 = tested on: COLO 205
NCI-H522 = tested on: NCI-H522
U-251 = tested on: U-251
SK-MEL-5 = tested on: SK-MEL-5
SN12C = tested on: SN12C
DMS-273 = tested on: DMS-273
DMS-114 = tested on: DMS-114
TK-10 = tested on: TK-10
OVCAR-8 = tested on: OVCAR-8
RPMI-8226 = tested on: RPMI-8226
SK-MEL-28 = tested on: SK-MEL-28
A498 = tested on: A498
NCI-H460 = tested on: NCI-H460
SF-268 = tested on: SF-268
NCI-H23 = tested on: NCI-H23
786-0 = tested on: 786-0
KM12 = tested on: KM12
CCRF-CEM = tested on: CCRF-CEM
SF-295 = tested on: SF-295
KM-20L2 = tested on: KM-20L2
ACHN = tested on: ACHN
SK-OV-3 = tested on: SK-OV-3
HCT-116 = tested on: HCT-116
SK-MEL-2 = tested on: SK-MEL-2
UACC-62 = tested on: UACC-62
HCT-15 = tested on: HCT-15
A549 = tested on: A549
M14 = tested on: M14
HCC 2998 = tested on: HCC 2998
OVCAR-3 = tested on: OVCAR-3
NCI-H226 = tested on: NCI-H226
SNB-78 = tested on: SNB-78
SW-620 = tested on: SW-620
SR = tested on: SR
RXF 393 = tested on: RXF 393
MCF7 = tested on: MCF7
DU-145 = tested on: DU-145
Hs-578T = tested on: Hs-578T
MDA-MB-435 = tested on: MDA-MB-435
MDA-MB-231 = tested on: MDA-MB-231
PC-3 = tested on: PC-3
MDA-N = tested on: MDA-N
NCI/ADR-RES = tested on: NCI/ADR-RES
BT-549 = tested on: BT-549
T47D = tested on: T47D

Measured: GI50

O=C(CC(CC(=O)Oc1c(Br)cc(Br)cc1C(=O)O)C(=O)Oc1c(Br)cc(Br)cc1C(=O)O)Oc1c(Br)cc(Br)cc1C(=O)O
inactive: UACC-257 83.6 µM | EKVX 44.9 µM | IGROV-1 29 µM | LOX IMVI 30.8 µM | HT-29 49.2 µM | K562 41.4 µM | HOP-62 46.5 µM | DLD-1 65 µM | SNB-75 26.1 µM | HL-60 43.7 µM | SF-539 48.1 µM | LXFL 529 58.6 µM | HOP-92 16.5 µM | UO-31 36.5 µM | OVCAR-4 50.2 µM | M19-MEL > 100 µM | CAKI-1 72.6 µM | OVCAR-5 45.1 µM | MOLT-4 46.5 µM | SNB-19 48.8 µM | Malme-3M 70.1 µM | COLO 205 > 100 µM | NCI-H522 22.2 µM | U-251 46.6 µM | SK-MEL-5 > 100 µM | SN12C 52.1 µM | DMS-273 > 100 µM | DMS-114 31.8 µM | TK-10 51.4 µM | OVCAR-8 19.3 µM | RPMI-8226 33.7 µM | SK-MEL-28 > 100 µM | A498 81.5 µM | NCI-H460 56.8 µM | SF-268 6.12 µM | NCI-H23 36.4 µM | 786-0 > 100 µM | KM12 50.7 µM | CCRF-CEM 41.6 µM | SF-295 71.3 µM | KM-20L2 56.6 µM | ACHN > 100 µM | SK-OV-3 54.7 µM | HCT-116 43.6 µM | SK-MEL-2 39.2 µM | UACC-62 49.9 µM | A549 47.5 µM | M14 91.6 µM | HCC 2998 42.3 µM | OVCAR-3 47.8 µM | NCI-H226 20.7 µM | SNB-78 49.2 µM | SW-620 69.5 µM
43.8 µM: HCT-15
active: XF498 0.504 µM

CS/C(=N/C#N)NCCc1c[nH]c2ccccc12
> 100 µM: HCT-15
inactive: UACC-257 > 100 µM | EKVX 18 µM | IGROV-1 > 100 µM | LOX IMVI > 100 µM | HT-29 98.4 µM | K562 67 µM | HOP-62 > 100 µM | DLD-1 > 100 µM | SNB-75 35.2 µM | HL-60 55.2 µM | SF-539 > 100 µM | LXFL 529 > 100 µM | XF498 34.8 µM | SR 60.3 µM | UO-31 49 µM | OVCAR-4 > 100 µM | M19-MEL > 100 µM | OVCAR-5 > 100 µM | MOLT-4 80.7 µM | SNB-19 > 100 µM | COLO 205 > 100 µM | U-251 > 100 µM | SK-MEL-5 76 µM | SN12C > 100 µM | DMS-273 > 100 µM | DMS-114 60.1 µM | TK-10 > 100 µM | OVCAR-8 > 100 µM | RPMI-8226 96.8 µM | SK-MEL-28 > 100 µM | NCI-H460 > 100 µM | SF-268 > 100 µM | NCI-H23 > 100 µM | 786-0 45.6 µM | KM12 > 100 µM | CCRF-CEM 48.2 µM | SF-295 > 100 µM | KM-20L2 44.9 µM | ACHN 25.1 µM | SK-OV-3 > 100 µM | HCT-116 > 100 µM | UACC-62 > 100 µM | A549 > 100 µM | M14 > 100 µM | HCC 2998 > 100 µM | OVCAR-3 > 100 µM | RXF 393 > 100 µM | NCI-H226 > 100 µM | SNB-78 > 100 µM | SW-620 > 100 µM

COc1cc(C2c3cc4c(cc3[C@@H](Nc3ccc(C(=O)O)cc3)C3COC(=O)[C@H]23)OCO4)cc(OC)c1O (stereo not given in full)
active: MOLT-4 0.546 µM
7.5 µM: HCT-15
inactive: UACC-257 > 17.5 µM | EKVX > 17.5 µM | LOX IMVI 2.42 µM | HT-29 11.1 µM | HOP-62 6.11 µM | SNB-75 6.58 µM | HL-60 3.24 µM | SF-539 4.7 µM | LXFL 529 5.82 µM | HOP-92 4.81 µM | UO-31 > 17.5 µM | OVCAR-4 11 µM | M19-MEL 10 µM | CAKI-1 5.93 µM | SNB-19 6.11 µM | Malme-3M 8.55 µM | SK-MEL-5 9.77 µM | SN12C > 17.5 µM | DMS-273 5.65 µM | SK-MEL-28 > 17.5 µM | NCI-H460 2.01 µM | SF-268 10.8 µM | NCI-H23 7.74 µM | CCRF-CEM 2.56 µM | SF-295 8.85 µM | HCT-116 14.5 µM | SK-MEL-2 16.6 µM | UACC-62 9.82 µM | A549 > 17.5 µM | M14 12.6 µM | OVCAR-3 14.7 µM | RXF 393 10.5 µM | NCI-H226 4.47 µM | SNB-78 5.78 µM

COC(=O)Cc1cc(OC)c(OC)cc1Br
inactive: UACC-257 > 100 µM | EKVX > 100 µM | HT-29 > 100 µM | K562 > 100 µM | HOP-62 > 100 µM | DLD-1 > 100 µM | SNB-75 66.4 µM | HL-60 > 100 µM | LXFL 529 > 100 µM | SR > 100 µM | HOP-92 > 100 µM | UO-31 > 100 µM | OVCAR-4 > 100 µM | M19-MEL > 100 µM | CAKI-1 > 100 µM | OVCAR-5 > 100 µM | MOLT-4 > 100 µM | SNB-19 > 100 µM | Malme-3M > 100 µM | COLO 205 > 100 µM | NCI-H522 > 100 µM | U-251 > 100 µM | SN12C > 100 µM | DMS-114 > 100 µM | TK-10 > 100 µM | OVCAR-8 > 100 µM | RPMI-8226 > 100 µM | SK-MEL-28 > 100 µM | A498 > 100 µM | NCI-H460 > 100 µM | SF-268 > 100 µM | NCI-H23 > 100 µM | 786-0 > 100 µM | KM12 > 100 µM | CCRF-CEM > 100 µM | SF-295 > 100 µM | KM-20L2 > 100 µM | ACHN > 100 µM | SK-OV-3 > 100 µM | HCT-116 > 100 µM | SK-MEL-2 > 100 µM | UACC-62 > 100 µM | A549 > 100 µM | M14 > 100 µM | HCC 2998 > 100 µM | OVCAR-3 > 100 µM | NCI-H226 > 100 µM | SNB-78 > 100 µM | SW-620 > 100 µM

COc1ccc2c3c(c4cc(OC)c(OC)cc4c2c1)C[C@H]1CCCCN1C3 [CRYPTOPLEURINE]
active: LOX IMVI 0.005 µM | HT-29 0.005 µM | DLD-1 0.005 µM | MCF7 0.005 µM | OVCAR-4 0.005 µM | U-251 0.005 µM | OVCAR-8 0.005 µM | SK-OV-3 0.005 µM | HCT-116 0.005 µM | SNB-78 0.005 µM

c1ccc(/C(=N\Nc2nc3ccccc3s2)c2ccccn2)cc1
inactive: UACC-257 2.92 µM | IGROV-1 4.69 µM | LOX IMVI 4.04 µM | DU-145 3.75 µM | Hs-578T 13.2 µM | HT-29 1.87 µM | K562 1.72 µM | HOP-62 6.47 µM | SNB-75 19.7 µM | SF-539 7 µM | MDA-MB-435 5.68 µM | HOP-92 7.31 µM | OVCAR-4 2.66 µM | CAKI-1 2.72 µM | OVCAR-5 3.91 µM | SNB-19 5.77 µM | MDA-MB-231 4.74 µM | COLO 205 1.37 µM | NCI-H522 2.71 µM | U-251 2.84 µM | PC-3 5.7 µM | SK-MEL-5 2.49 µM | SN12C 2.79 µM | TK-10 1.38 µM | OVCAR-8 2.52 µM | RPMI-8226 1.77 µM | SK-MEL-28 8.13 µM | A498 6.15 µM | NCI-H460 1.97 µM | SF-268 3.13 µM | NCI-H23 6.82 µM | 786-0 2.36 µM | KM12 3.56 µM | SF-295 5.19 µM | MDA-N 4.94 µM | SK-OV-3 8.28 µM | HCT-116 1.88 µM | NCI/ADR-RES 2.7 µM | SK-MEL-2 4.08 µM | BT-549 18.8 µM | UACC-62 3.66 µM | A549 3.09 µM | M14 3.14 µM | HCC 2998 14.4 µM | RXF 393 4.3 µM | NCI-H226 3.87 µM | SW-620 3.18 µM
0.622 µM: HCT-15
active: EKVX 0.41 µM | HL-60 0.792 µM | SR 0.891 µM | MCF7 0.317 µM | UO-31 0.0843 µM | MOLT-4 0.346 µM | Malme-3M 0.649 µM | CCRF-CEM 0.0603 µM | ACHN 0.815 µM | T47D < 0.0248 µM | OVCAR-3 0.0948 µM
